Assay results: the NIST ThermoML archive (doi:10.1016/j.jct.2013.10.031)

Test: wn = mass fraction of the nth substance listed
Settings: Gas, Burnett expansion method

FCC(F)(F)F [1,1,1,2-tetrafluoroethane] + CCC
Settings | mass density [kg/m3]
282.99 K, 353.3 kPa, w2 = 0.55 | 9.521
282.99 K, 510.2 kPa, w2 = 0.65 | 13.287
282.99 K, 592.4 kPa, w2 = 0.55 | 16.8344
283 K, 155.9 kPa, w2 = 0.55 | 4.0493
283 K, 176.1 kPa, w2 = 0.6 | 4.4337
283 K, 205.5 kPa, w2 = 0.55 | 5.3845
283 K, 230.2 kPa, w2 = 0.65 | 5.6511
283 K, 270 kPa, w2 = 0.55 | 7.1599
283 K, 393.8 kPa, w2 = 0.65 | 9.9922
283 K, 459.5 kPa, w2 = 0.55 | 12.6599
283 K, 653.6 kPa, w2 = 0.65 | 17.6674
283.01 K, 175 kPa, w2 = 0.65 | 4.2497
283.86 K, 174.7 kPa, w2 = 0.4 | 5.14203
283.87 K, 229.9 kPa, w2 = 0.4 | 6.84912
283.87 K, 301.6 kPa, w2 = 0.4 | 9.12315
283.88 K, 393.6 kPa, w2 = 0.4 | 12.1512
283.9 K, 510.3 kPa, w2 = 0.4 | 16.1858
283.94 K, 655.1 kPa, w2 = 0.4 | 21.5571
284.1 K, 397.4 kPa, w2 = 0.45 | 11.7333
284.1 K, 515.6 kPa, w2 = 0.45 | 15.6293
284.1 K, 662.3 kPa, w2 = 0.45 | 20.819
284.11 K, 176.2 kPa, w2 = 0.45 | 4.96426
284.11 K, 231.9 kPa, w2 = 0.45 | 6.61256
284.11 K, 304.4 kPa, w2 = 0.45 | 8.80835
284.11 K, 711.7 kPa, w2 = 0.5 | 21.5401
284.12 K, 555.4 kPa, w2 = 0.5 | 16.1702
284.13 K, 189.6 kPa, w2 = 0.5 | 5.13602
284.13 K, 249.8 kPa, w2 = 0.5 | 6.84131
284.13 K, 327.9 kPa, w2 = 0.5 | 9.11297
284.13 K, 428.3 kPa, w2 = 0.5 | 12.139
287 K, 196.2 kPa, w2 = 0.6 | 4.8811
287 K, 768.5 kPa, w2 = 0.65 | 20.9537
287.01 K, 258.3 kPa, w2 = 0.6 | 6.4904
287.01 K, 274.8 kPa, w2 = 0.65 | 6.7019
287.01 K, 311.4 kPa, w2 = 0.55 | 8.1881
287.01 K, 338.5 kPa, w2 = 0.6 | 8.6303
287.01 K, 406.7 kPa, w2 = 0.55 | 10.8878
287.01 K, 527.4 kPa, w2 = 0.55 | 14.4779
287.01 K, 571.1 kPa, w2 = 0.6 | 15.26
287.01 K, 603.8 kPa, w2 = 0.65 | 15.7575
287.01 K, 677.5 kPa, w2 = 0.55 | 19.2516
287.01 K, 730.6 kPa, w2 = 0.6 | 20.2911
287.02 K, 180 kPa, w2 = 0.55 | 4.6307
287.02 K, 209 kPa, w2 = 0.65 | 5.0401
287.02 K, 237.2 kPa, w2 = 0.55 | 6.1576
287.02 K, 359.7 kPa, w2 = 0.65 | 8.9115
287.02 K, 441.6 kPa, w2 = 0.6 | 11.4756
287.02 K, 467.8 kPa, w2 = 0.65 | 11.85
287.89 K, 145.9 kPa, w2 = 0.4 | 4.20423
287.89 K, 192.3 kPa, w2 = 0.4 | 5.60013
287.89 K, 253 kPa, w2 = 0.4 | 7.45965
287.89 K, 331.1 kPa, w2 = 0.4 | 9.93648
287.9 K, 431.5 kPa, w2 = 0.4 | 13.2354
287.9 K, 558 kPa, w2 = 0.4 | 17.6298
287.93 K, 714.8 kPa, w2 = 0.4 | 23.4815
288.06 K, 650.7 kPa, w2 = 0.45 | 19.9802
288.07 K, 171.7 kPa, w2 = 0.45 | 4.76422
288.07 K, 226.1 kPa, w2 = 0.45 | 6.34615
288.07 K, 297 kPa, w2 = 0.45 | 8.45356
288.07 K, 388.5 kPa, w2 = 0.45 | 11.2604
288.07 K, 505 kPa, w2 = 0.45 | 14.9994
288.07 K, 827.4 kPa, w2 = 0.45 | 26.6134
288.18 K, 242.5 kPa, w2 = 0.5 | 6.52495
288.18 K, 416.8 kPa, w2 = 0.5 | 11.5774
288.19 K, 184.1 kPa, w2 = 0.5 | 4.89841
288.19 K, 318.7 kPa, w2 = 0.5 | 8.69128
288.19 K, 541.6 kPa, w2 = 0.5 | 15.4214
288.19 K, 696.9 kPa, w2 = 0.5 | 20.5413
291 K, 851.2 kPa, w2 = 0.55 | 24.7999
291.01 K, 519.6 kPa, w2 = 0.55 | 14.0252
291.01 K, 669.4 kPa, w2 = 0.55 | 18.65
291.02 K, 399.8 kPa, w2 = 0.55 | 10.5472
291.03 K, 305.7 kPa, w2 = 0.55 | 7.9316
291.04 K, 168.3 kPa, w2 = 0.6 | 4.1049
291.04 K, 222.1 kPa, w2 = 0.6 | 5.4582
291.04 K, 232.6 kPa, w2 = 0.55 | 5.9647
291.04 K, 292.1 kPa, w2 = 0.6 | 7.2581
